Data: US10703748B2, “Diazanaphthalen-3-yl carboxamides and preparation and use thereof” (Samumed, LLC, priority 2017, dated 2020)

Legend:
DYRK1A kinase = DYRK1A kinase (Homo sapiens, UniProt Q13627); test: DYRK1A kinase activity (Ser/Thr 18 peptide Z-lyte FRET assay); format: biochemical; conditions: recombinant DYRK1A, 30 μM ATP, one hour at room temperature;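 further: kinase activity read as coumarin/fluorescein emission ratio after development step, with unphosphorylated and phosphorylated peptide forms setting 0% and 100% controls, values from dose-response curves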
[1] = test system: SW480 colon carcinoma cells; test: Cell viability assay (CellTiter-Glo); conditions: Homo sapiens; for EC50: SW480, 96 h; for inhibition at 10 µM: SW480, read-out: percent inhibition at 10 μM
[2] = test system: α-smooth muscle actin (aSMA) positive LL29 cells; test: Inhibition of the fibrotic process: αSMA staining in TGF-β1 treated LL29 fibroblasts from IPF patients; conditions: Homo sapiens, Fibroblast; for EC50: 96 h; for inhibition at 10 µM: read-out: percentage in parentheses after EC50 >10
GSK3β kinase = GSK3β kinase (Homo sapiens, UniProt P49841); test: GSK3β kinase activity (Ser/Thr 09 peptide Z-lyte FRET assay); format: biochemical; conditions: recombinant kinase, 46 μM ATP, one hour at room temperature; read-out: EC50
Chain of GSK3β kinase (P49841 whole entry): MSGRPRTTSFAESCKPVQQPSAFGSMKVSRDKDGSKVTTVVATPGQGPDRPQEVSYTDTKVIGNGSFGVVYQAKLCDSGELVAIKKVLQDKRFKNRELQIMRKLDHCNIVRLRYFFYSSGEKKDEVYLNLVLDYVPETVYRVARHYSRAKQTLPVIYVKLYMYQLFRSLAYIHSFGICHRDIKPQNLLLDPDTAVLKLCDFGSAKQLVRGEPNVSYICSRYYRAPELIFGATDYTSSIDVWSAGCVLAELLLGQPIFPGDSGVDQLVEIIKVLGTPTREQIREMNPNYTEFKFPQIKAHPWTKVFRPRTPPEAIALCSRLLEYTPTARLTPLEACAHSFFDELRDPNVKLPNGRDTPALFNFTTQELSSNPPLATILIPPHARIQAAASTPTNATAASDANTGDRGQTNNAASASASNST

[3] = test system: secreted cytokines TNFα, IL-6 and KC-GRO; test: Secreted cytokines in Lipopolysaccharide-stimulated BV-2 cells (Table 9 does not say which cytokine); format: cell-based, mouse; conditions: Mus musculus, BV-2, 5 h; read-out: EC50
IL-6 = IL-6 inhibition in LPS-stimulated human peripheral blood mononuclear cells (HTRF); conditions: Homo sapiens, PBMC; for EC50: 22 h; for inhibition at 10 µM: read-out: percentage in parentheses after EC50 >10
Protocol: Each compound was dissolved in DMSO (Catalog # D8418-100 ml, Sigma-Aldrich, St. Louis, Mo.) as a 10 mM stock and used to prepare compound source plates. […] After 22 hour incubation, a mixture of anti-IL6 XL665 and anti-IL-6 Cryptate diluted in reconstitution buffer (Catalog #62IL6PEC, Cisbio Inc., Bedford, Mass.) was added to each well. […] All samples were processed in duplicate. […] EC50 was determined using software generated by Dotmatics Limited (Windhill Bishops Stortford Herts, UK) using the Levenberg-Marquardt 4 parameter fitting procedure with finite different gradients.

[4] = test system: Wnt-responsive Sp5-Luc reporter in SW480 colon carcinoma cells; test: Screening assay for Wnt activity (Sp5-Luc reporter gene assay); conditions: Homo sapiens; for EC50: SW480; for inhibition at 10 µM: SW480, read-out: percent inhibition at 10 μM
[5] = test system: Tau phosphorylation at Ser396 (pSer396); test: Tau phosphorylation at Ser396 (pSer396) in SH-SY5Y cells, ELISA / western blot; format: cell-based, human; conditions: Homo sapiens; SH-SY5Y cells, overnight (16-18 h); read-out: pSer396 Tau EC50;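 further: decrease in pSer396 Tau measured in lysates of treated cells by colorimetric ELISA or chemiluminescent western blot, same pSer396 antibody for both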
Protocol: Two days before treatment, cells were seeded onto 96 well plates at 5×10^4 cells/well.
The above synthesized compounds were screened using the cell assay procedure to assess decrease Tau phosphorylation at Ser396 (pSer396) described below.
Cells were lysed with RIPA buffer complemented with phosphatase and protease inhibitors then lysates were spun down at 12,000 g for 10 min to remove any cellular debris.

CN(CC(=O)Nc1ncc2ccc(-c3cnn(C)c3)cc2n1)C1CCC1 [Compound 963, 2-(Cyclobutyl(methyl)amino)-N-(7-(1-methyl-1H-pyrazol-4-yl)quinazolin-2-yl)acetamide]
EC50 (DYRK1A kinase): 0.045 µM
EC50 [1]: > 10 µM
inhibition at 10 µM [1]: 27.9%
EC50 [2]: 1.57 µM
EC50 (GSK3β kinase): 0.045 µM
EC50 [3]: 0.354 µM
EC50 (IL-6): > 10 µM
inhibition at 10 µM (IL-6): 5.4%
EC50 [4]: > 10 µM
inhibition at 10 µM [4]: 11.8%
EC50 [5]: 1.62 µM

Cn1cc(-c2ccc3cnc(NC(=O)CN4CCOCC4)nc3c2)cn1 [Compound 985, N-(7-(1-Methyl-1H-pyrazol-4-yl)quinazolin-2-yl)-2-morpholinoacetamide]
EC50 (DYRK1A kinase): 0.126 µM
EC50 [1]: > 10 µM
inhibition at 10 µM [1]: 9.6%
EC50 [2]: > 10 µM
inhibition at 10 µM [2]: 51.7%
EC50 (GSK3β kinase): 0.035 µM
EC50 [3]: > 10 µM
EC50 (IL-6): > 10 µM
inhibition at 10 µM (IL-6): 3.2%
EC50 [4]: > 10 µM
inhibition at 10 µM [4]: 5.5%
EC50 [5]: 5.4 µM

Cn1cc(-c2ccc3cnc(NC(=O)CC4CNCCO4)nc3c2)cn1 (stereo not drawn) [Compound 994, N-(7-(1-Methyl-1H-pyrazol-4-yl)quinazolin-2-yl)-2-(morpholin-2-yl)acetamide]
EC50 (DYRK1A kinase): 0.015 µM
EC50 [1]: > 10 µM
inhibition at 10 µM [1]: 24.8%
EC50 [2]: > 10 µM
inhibition at 10 µM [2]: 0%
EC50 (GSK3β kinase): 0.776 µM
EC50 [3]: 1.3 µM
EC50 (IL-6): 8.31 µM
EC50 [4]: > 10 µM
inhibition at 10 µM [4]: 11.5%
EC50 [5]: > 10 µM

Cn1cc(-c2ccc3cnc(NC(=O)C4CCN(Cc5ncco5)CC4)nc3c2)cn1 [Compound 1003, N-(7-(1-Methyl-1H-pyrazol-4-yl)quinazolin-2-yl)-1-(oxazol-2-ylmethyl) piperidine-4-carboxamide]
EC50 (DYRK1A kinase): 0.025 µM
EC50 [1]: > 10 µM
inhibition at 10 µM [1]: 18.5%
EC50 [2]: > 10 µM
inhibition at 10 µM [2]: 4.8%
EC50 (GSK3β kinase): 0.262 µM
EC50 [3]: 1.49 µM
EC50 (IL-6): > 10 µM
inhibition at 10 µM (IL-6): 6.6%
EC50 [4]: > 10 µM
inhibition at 10 µM [4]: 19.3%
EC50 [5]: 4.5 µM

Cn1cc(-c2ccc3cnc(NC(=O)C4CCN(Cc5ncccn5)CC4)nc3c2)cn1 [Compound 1007, N-(7-(1-methyl-1H-pyrazol-4-yl)quinazolin-2-yl)-1-(pyrimidin-2-ylmethyl)piperidine-4-carboxamide]
EC50 (DYRK1A kinase): 0.106 µM
EC50 [1]: > 10 µM
inhibition at 10 µM [1]: 17.9%
EC50 [2]: > 10 µM
inhibition at 10 µM [2]: 39.7%
EC50 (GSK3β kinase): 0.349 µM
EC50 [3]: 1.8 µM
EC50 (IL-6): > 10 µM
inhibition at 10 µM (IL-6): 2.4%
EC50 [4]: > 10 µM
inhibition at 10 µM [4]: 14.6%
EC50 [5]: > 10 µM

Cn1cc(-c2ccc3cnc(NC(=O)CCc4ccccc4)nc3c2)cn1 [Compound 1101, N-(7-(1-Methyl-1H-pyrazol-4-yl)quinazolin-2-yl)-3-phenylpropanamide]
EC50 (DYRK1A kinase): 0.02 µM
EC50 [1]: 4.48 µM
EC50 [2]: > 10 µM
inhibition at 10 µM [2]: 12.7%
EC50 (GSK3β kinase): 0.055 µM
EC50 [3]: 3.1 µM
EC50 (IL-6): > 10 µM
inhibition at 10 µM (IL-6): 10.6%
EC50 [4]: 2.28 µM
EC50 [5]: 9.5 µM

Cn1ncc(-c2ccc3cnc(NC(=O)C4CC5(C4)CN(CCF)C5)nc3c2)c1CN1CCCCC1 [Compound 1186, 2-(2-Fluoroethyl)-N-(7-(1-methyl-5-(piperidin-1-ylmethyl)-1H-pyrazol-4-yl)quinazolin-2-yl)-2-azaspiro[3.3]heptane-6-carboxamide]
EC50 (DYRK1A kinase): 0.042 µM
EC50 [1]: > 10 µM
inhibition at 10 µM [1]: 35.2%
EC50 [2]: > 10 µM
inhibition at 10 µM [2]: 24.5%
EC50 (GSK3β kinase): 0.402 µM
EC50 [3]: 5.6 µM
EC50 (IL-6): > 10 µM
inhibition at 10 µM (IL-6): 6.7%
EC50 [4]: > 10 µM
inhibition at 10 µM [4]: 35.8%
EC50 [5]: 5.4 µM

Cn1cc(-c2ccc3cnc(NC(=O)C4CCN(CC5(C(F)(F)F)CC5)CC4)nc3c2)nn1 [Compound 1253, N-(7-(1-Methyl-1H-1,2,3-triazol-4-yl)quinazolin-2-yl)-1-((1-(trifluoromethyl)cyclopropyl)methyl)piperidine-4-carboxamide]
EC50 (DYRK1A kinase): 0.013 µM
EC50 [1]: > 10 µM
inhibition at 10 µM [1]: 17.1%
EC50 [2]: > 10 µM
inhibition at 10 µM [2]: 47.2%
EC50 (GSK3β kinase): 0.015 µM
EC50 [3]: > 10 µM
EC50 (IL-6): > 10 µM
inhibition at 10 µM (IL-6): 4.4%
EC50 [4]: 1.18 µM
EC50 [5]: 0.188 µM

CNC(=O)c1ccc(C(=O)Nc2ncc3ccc(-c4cn(C)nn4)cc3n2)cn1 [Compound 1278, N^2-Methyl-N^5-(7-(1-methyl-1H-1,2,3-triazol-4-yl)quinazolin-2-yl)pyridine-2,5-dicarboxamide]
EC50 (DYRK1A kinase): 0.007 µM
EC50 [1]: 8.53 µM
EC50 [2]: > 10 µM
inhibition at 10 µM [2]: 35.9%
EC50 (GSK3β kinase): 0.134 µM
EC50 [3]: 7.2 µM
EC50 (IL-6): > 10 µM
inhibition at 10 µM (IL-6): 3%
EC50 [4]: 3.7 µM
EC50 [5]: 5.05 µM

CN1CCC(N(C)c2cc(C(=O)Nc3ncc4ccc(-c5cn(C)nn5)cc4n3)ccn2)CC1 [Compound 1288, 2-(Methyl(1-methylpiperidin-4-yl)amino)-N-(7-(1-methyl-1H-1,2,3-triazol-4-yl)quinazolin-2-yl)isonicotinamide]
EC50 (DYRK1A kinase): 0.006 µM
EC50 [1]: 1.09 µM
EC50 [2]: 8.01 µM
EC50 (GSK3β kinase): 0.177 µM
EC50 [3]: 6.1 µM
EC50 (IL-6): > 10 µM
inhibition at 10 µM (IL-6): 9.8%
EC50 [4]: 0.059 µM
EC50 [5]: 10 µM

Cc1cn2c(n1)CN(C(=O)Nc1ncc3ccc(-c4cnc(C)o4)cc3n1)CC2 [Compound 1491, 2-Methyl-N-(7-(2-methyloxazol-5-yl)quinazolin-2-yl)-5,6-dihydroimidazo [1,2-a]pyrazine-7(8H)-carboxamide]
EC50 (DYRK1A kinase): 0.039 µM
EC50 [1]: 8.86 µM
EC50 [2]: > 10 µM
inhibition at 10 µM [2]: 6.1%
EC50 (GSK3β kinase): 0.166 µM
EC50 [3]: 3.9 µM
EC50 (IL-6): > 10 µM
inhibition at 10 µM (IL-6): 2.6%
EC50 [4]: > 10 µM
inhibition at 10 µM [4]: 25.2%
EC50 [5]: 3.7 µM

CN(C)[C@H]1CC[C@H](C(=O)Nc2ncc3ccc(-c4cncs4)cc3n2)CC1 [Compound 1518, trans-4-(Dimethylamino)-N-(7-(thiazol-5-yl)quinazolin-2-yl)cyclohexane-1-carboxamide]
EC50 (DYRK1A kinase): 0.014 µM
EC50 [1]: > 10 µM
inhibition at 10 µM [1]: 25.3%
EC50 [2]: 2.61 µM
EC50 (GSK3β kinase): 0.253 µM
EC50 [3]: 1.08 µM
EC50 (IL-6): > 10 µM
inhibition at 10 µM (IL-6): 30.1%
EC50 [4]: > 10 µM
inhibition at 10 µM [4]: 24.8%
EC50 [5]: 5.4 µM

O=C(Nc1ncc2ccc(-c3cncs3)cc2n1)C1CCN(C(=O)CN2CCCC2)CC1 [Compound 1524, 1-(2-(Pyrrolidin-1-yl)acetyl)-N-(7-(thiazol-5-yl)quinazolin-2-yl)piperidine-4-carboxamide]
EC50 (DYRK1A kinase): 0.007 µM
EC50 [1]: > 10 µM
inhibition at 10 µM [1]: 18.1%
EC50 [2]: 4.78 µM
EC50 (GSK3β kinase): 0.407 µM
EC50 [3]: 3.6 µM
EC50 (IL-6): > 10 µM
inhibition at 10 µM (IL-6): 50%
EC50 [4]: > 10 µM
inhibition at 10 µM [4]: 13.4%
EC50 [5]: > 10 µM

CN1CCN(c2cc(C(=O)Nc3ncc4ccc(-c5cncs5)cc4n3)ccn2)CC1 [Compound 1536, 2-(4-Methylpiperazin-1-yl)-N-(7-(thiazol-5-yl)quinazolin-2-yl)isonicotinamide]
EC50 (DYRK1A kinase): 0.004 µM
EC50 [1]: 1.04 µM
EC50 [2]: 1.13 µM
EC50 (GSK3β kinase): 0.207 µM
EC50 [3]: 0.336 µM
EC50 (IL-6): > 10 µM
inhibition at 10 µM (IL-6): 49.6%
EC50 [4]: 0.663 µM
EC50 [5]: 1.18 µM

CN1CCC(C(=O)Nc2ncc3ccc(-c4cnsc4)cc3n2)CC1 [Compound 1598, N-(7-(Isothiazol-4-yl)quinazolin-2-yl)-1-methylpiperidine-4-carboxamide]
EC50 (DYRK1A kinase): 0.027 µM
EC50 [1]: > 10 µM
inhibition at 10 µM [1]: 8.4%
EC50 [2]: 1.27 µM
EC50 (GSK3β kinase): 4.18 µM
EC50 [3]: 3.1 µM
EC50 (IL-6): > 10 µM
inhibition at 10 µM (IL-6): 7.5%
EC50 [4]: > 10 µM
inhibition at 10 µM [4]: 15.5%
EC50 [5]: > 10 µM

CO[C@H]1CC[C@@H](C(=O)Nc2ncc3ccc(-c4nnc(C)s4)cc3n2)CC1 [Compound 1612, cis-4-Methoxy-N-(7-(5-methyl-1,3,4-thiadiazol-2-yl)quinazolin-2-yl)cyclohexane-1-carboxamide]
EC50 (DYRK1A kinase): 0.021 µM
EC50 [1]: > 10 µM
inhibition at 10 µM [1]: 23.8%
EC50 [2]: > 10 µM
inhibition at 10 µM [2]: 42%
EC50 (GSK3β kinase): 0.049 µM
EC50 [3]: 2.2 µM
EC50 (IL-6): > 10 µM
inhibition at 10 µM (IL-6): 6.3%
EC50 [4]: > 10 µM
inhibition at 10 µM [4]: 37.9%
EC50 [5]: 1.1 µM

Cc1nnc(-c2ccc3cnc(NC(=O)C4CCN(C(=O)c5ccccc5)CC4)nc3c2)s1 [Compound 1625, 1-Benzoyl-N-(7-(5-methyl-1,3,4-thiadiazol-2-yl)quinazolin-2-yl)piperidine-4-carboxamide]
EC50 (DYRK1A kinase): 0.025 µM
EC50 [1]: > 10 µM
inhibition at 10 µM [1]: 18.8%
EC50 [2]: 1.77 µM
EC50 (GSK3β kinase): 0.008 µM
EC50 [3]: 0.436 µM
EC50 (IL-6): > 10 µM
inhibition at 10 µM (IL-6): 4%
EC50 [4]: > 10 µM
inhibition at 10 µM [4]: 37.3%
EC50 [5]: 0.402 µM
